Assay results published in patent US5981541A, “Substituted heterocycles as anti-tumor agents” (Rutgers, The State University of New Jersey, priority 1997, dated 1999).

What was measured:
[1] = biological target: T1, human topoisomerase I (Homo sapiens, UniProt P11387); assay: Topo I-mediated DNA cleavage assay; format: biochemical; conditions: for Topo I-mediated DNA cleavage (REC, Relative Effective Concentration): concentration relative to camptothecin (CPT = 1) producing the same cleavage on plasmid DNA in the presence of human topoisomerase I
T1 construct: 15 amino acid fusion from pET-11a vector (N); made in house; host or cells: E. coli BL21(DE3)
T1 sequence (P11387 1-765): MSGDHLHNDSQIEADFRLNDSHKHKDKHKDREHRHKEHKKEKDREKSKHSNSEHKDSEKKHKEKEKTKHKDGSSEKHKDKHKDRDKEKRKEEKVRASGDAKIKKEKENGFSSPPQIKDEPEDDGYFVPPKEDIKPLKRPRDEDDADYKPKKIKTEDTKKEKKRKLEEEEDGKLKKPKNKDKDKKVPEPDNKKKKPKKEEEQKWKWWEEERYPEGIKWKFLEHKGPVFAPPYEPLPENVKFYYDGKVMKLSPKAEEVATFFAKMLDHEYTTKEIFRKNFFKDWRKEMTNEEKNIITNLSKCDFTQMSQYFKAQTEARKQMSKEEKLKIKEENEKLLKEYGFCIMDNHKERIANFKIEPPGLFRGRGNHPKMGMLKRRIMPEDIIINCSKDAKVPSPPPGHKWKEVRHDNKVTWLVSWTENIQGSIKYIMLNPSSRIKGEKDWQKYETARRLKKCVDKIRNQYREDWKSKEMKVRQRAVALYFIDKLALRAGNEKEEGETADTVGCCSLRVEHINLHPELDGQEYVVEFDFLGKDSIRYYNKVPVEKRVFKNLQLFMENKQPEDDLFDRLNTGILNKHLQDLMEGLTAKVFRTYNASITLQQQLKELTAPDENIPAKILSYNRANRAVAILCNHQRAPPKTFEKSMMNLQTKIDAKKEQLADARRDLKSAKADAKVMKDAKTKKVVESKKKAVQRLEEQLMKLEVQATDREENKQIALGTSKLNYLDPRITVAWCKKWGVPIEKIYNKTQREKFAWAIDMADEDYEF
From the text: To obtain large quantity of human topoisomerase I, the human topoisomerase I cDNA was cloned into the pET-11a vector, in which transcription of the cDNA is under the control of the inducible T7 promoter (Studier et al., Methods in Enzymol., Vol. 185:60-89, San Diego: Academic Press (1990)). Briefly, a 3.4 kb DNA fragment containing the entire coding sequence of human topoisomerase I and approximately 1 kb of untranslated region downstream of the stop codon was isolated from the plasmid YCpGAL1-hTOP1 (Bjornsti et al., Cancer Res. 49:6318-6323 (1989)) by cutting at the BamHI and EcoRI sites. The vector pET-11a was cut with the same restriction enzymes, dephosphorylated and ligated to the insert in the proper reading frame downstream of the vector cloning site. […] Since the translational start in pET is positioned at an upstream NdeI site, the expressed topoisomerase I has a 15 amino acid fusion at its N-terminus. pET1B was then transformed into E. coli BL21 (DE3), and, upon induction with 0.4 mM IPTG for 1 hour, the bacterial lysate was analyzed by 10% SDS-PAGE. […] Briefly, E. coli cells were lysed by repeated sonic bursts. The sonic extract was made in 1 M NaCl and 6% polyethylene glycol (PEG) to remove nucleic acids. The PEG supernatant was chromatographed directly on a hydroxyapatite column. […] The eluted enzyme was dialyzed against 50% glycerol, 30 mM potassium phosphate (pH 7.0), 1 mM dithiothreitol (DTT) and 0.1 mM EDTA and stored at -20° C.
(§1) Cleavage assays for the recombinant topoisomerases I and calf thymus topoisomerases I and II were done as described (Liu et al., J. Biol. Chem. 258:15365-15370 (1983)). The plasmid YEpG DNA used for the cleavage assays was prepared and labeled at its 3'-end using the published procedures.

[2] = biological target: T2, calf thymus topoisomerase II (Bos taurus, UniProt F1MDU7); assay: Topo II-mediated DNA cleavage assay; format: biochemical; conditions: concentration relative to VM26 (= 1) producing the same cleavage on plasmid DNA in the presence of calf thymus topoisomerase II
T2 construct: from tissue; host or cells: calf thymus glands
T2 sequence (F1MDU7 1-1532): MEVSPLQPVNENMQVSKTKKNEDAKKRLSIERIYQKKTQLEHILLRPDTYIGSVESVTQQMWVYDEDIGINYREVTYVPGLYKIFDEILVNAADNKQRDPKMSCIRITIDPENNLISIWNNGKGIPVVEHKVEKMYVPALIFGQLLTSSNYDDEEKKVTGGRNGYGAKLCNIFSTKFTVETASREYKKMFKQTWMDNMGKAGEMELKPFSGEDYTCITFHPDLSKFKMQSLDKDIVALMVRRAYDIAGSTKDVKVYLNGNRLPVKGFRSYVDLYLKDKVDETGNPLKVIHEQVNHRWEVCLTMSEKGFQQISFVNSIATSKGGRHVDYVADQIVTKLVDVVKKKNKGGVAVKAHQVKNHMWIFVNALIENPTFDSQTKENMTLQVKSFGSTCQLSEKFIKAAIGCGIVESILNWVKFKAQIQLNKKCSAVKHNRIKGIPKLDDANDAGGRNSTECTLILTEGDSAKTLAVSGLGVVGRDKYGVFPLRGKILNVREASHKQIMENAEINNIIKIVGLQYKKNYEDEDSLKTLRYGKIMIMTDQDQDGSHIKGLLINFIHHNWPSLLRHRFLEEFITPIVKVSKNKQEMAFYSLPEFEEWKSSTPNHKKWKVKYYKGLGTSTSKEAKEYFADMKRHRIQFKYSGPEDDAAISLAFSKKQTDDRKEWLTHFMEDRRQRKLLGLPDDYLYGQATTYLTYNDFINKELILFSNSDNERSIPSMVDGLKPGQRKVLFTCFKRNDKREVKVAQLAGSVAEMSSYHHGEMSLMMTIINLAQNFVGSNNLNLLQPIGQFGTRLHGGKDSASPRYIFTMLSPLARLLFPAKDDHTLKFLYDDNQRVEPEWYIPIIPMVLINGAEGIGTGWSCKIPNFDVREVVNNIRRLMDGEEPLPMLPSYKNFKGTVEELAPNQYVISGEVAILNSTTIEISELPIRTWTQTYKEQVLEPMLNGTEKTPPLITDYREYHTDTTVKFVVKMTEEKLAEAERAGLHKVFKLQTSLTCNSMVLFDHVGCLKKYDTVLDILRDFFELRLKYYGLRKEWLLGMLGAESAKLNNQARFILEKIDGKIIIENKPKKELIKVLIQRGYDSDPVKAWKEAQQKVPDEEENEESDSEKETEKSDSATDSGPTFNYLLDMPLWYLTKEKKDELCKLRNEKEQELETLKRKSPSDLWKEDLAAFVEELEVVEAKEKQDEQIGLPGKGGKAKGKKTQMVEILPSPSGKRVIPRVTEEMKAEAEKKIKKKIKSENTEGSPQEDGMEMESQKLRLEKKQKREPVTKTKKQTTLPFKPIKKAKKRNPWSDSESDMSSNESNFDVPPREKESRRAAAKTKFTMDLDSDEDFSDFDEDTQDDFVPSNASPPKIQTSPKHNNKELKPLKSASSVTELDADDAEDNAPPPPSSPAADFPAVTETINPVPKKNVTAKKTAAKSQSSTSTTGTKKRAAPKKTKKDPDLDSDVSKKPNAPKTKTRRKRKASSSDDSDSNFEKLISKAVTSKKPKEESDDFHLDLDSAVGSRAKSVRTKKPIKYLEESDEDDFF
From the text: The plasmid pET11a and the E. coli strain BL21(DE3) used for enzyme expression were purchased from Novagen. IPTG was purchased from Sigma. The ECL system used for the Western blotting analysis of bacterial lysates was from Amersham (UK). All the restriction enzymes and Vent polymerase were from New England Biolabs. Mammalian topoisomerase II was isolated from calf thymus glands according to the published procedure (Halligan et al., J. Biol. Chem. 260:2475-2482 (1985)). The single copy yeast plasmids YCpGAL1 expressing various topoisomerase I genes in JN2-134 yeast strain were a kind gift of Dr. M-A. Bjornsti (Thomas Jefferson University, Philadelphia, Pa.). All bacterial and yeast media were from Difco (Detroit, Mich.), while cell culture media were purchased from Gibco-BRL (Gaithersburg, Md.).
as §1

[3] = system: Human lymphoblast RPMI 8402 cells; assay: MTT-microtiter plate tetrazolinium cytotoxicity assay (MTA), RPMI 8402; format: cell-based; conditions: Homo sapiens, RPMI 8402, 96 h, read-out: Cytotoxicity IC50, RPMI
Description: (§2) The IC50 of the drugs tested were determined by the MTT-microtiter plate tetrazolinium cytotoxicity assay (MTA) (Mosmann, T., J. Immunol. Methods 65:55-63 (1983); Denizot et al., J. Immunol. Methods 89:271-277 (1986)). Human lymphoblast RPMI 8402 cells and their camptothecin-resistant CPT-K5 cells (Andoh et al., Proc. Natl. Acad. Sci., USA 84:5565-5569 (1987)) were kindly provided by Dr. Toshiwo Andoh (Aichi Cancer Center Research Institute, Nagoya, Japan). The cell lines A2780 and its camptothecin-resistant derivative CPT-2000 were a generous gift of Dr. Jaulang Hwang (Institute of Molecular Biology, Academia sinica, Taiwan). Cells (2000 cells/well, seeded in […] growth medium) were grown in suspension at 37° C. in 5% CO2 and maintained by regular passage in RPMI medium supplemented with 10% heat inactivated fetal bovine serum, L-glutamine (2 mM), penicillin (100 U/mi), and streptomycin (0.1 mg/ml). The cells were exposed continuously for 4 days to drug concentrations ranging from 100 ug/ml to 1.0 ng/ml in ten fold dilutions, and assayed at the end of the fourth day. Each concentration and the no drug control were repeated at least twice in 6 replica wells. The results were plotted and the IC50 then measured. The drug sensitive human epidermoid carcinoma KB 3-1 cell line and its vinblastine-selected multidrug-resistant variant KB-V1 cells (Akiyama et al., Genetics 11:117-126 (1985)) were kindly provided by Dr. Michael Gottesmann (National Cancer Institute). They were grown as monolayer cultures at 37° C. in 5% CO2 and maintained by regular passage in Dulbecco's minimal essential medium supplemented with 10% heat inactivated fetal bovine serum. KB-V1 cells were maintained in the presence of […] vinblastine.

[4] = system: camptothecin-resistant CPT-K5 cells; assay: MTT-microtiter plate tetrazolinium cytotoxicity assay (MTA), CPT-K5; format: cell-based, human; conditions: Homo sapiens, CPT-K5, 96 h, read-out: Cytotoxicity IC50, CPT-K5
Description: as §2

SMILES	Topo I-mediated DNA cleavage (REC, Relative Effective Concentration) [1]	Topo II-mediated DNA cleavage (REC, Relative Effective Concentration) [2]	IC50 [3]	IC50 [4]	topoisomerase I poisoning (in words) ([1]; summary statement)
COc1cc2c(cc1OC)-c1cc3cc(OC)c(OC)cc3nc1CC2 [Compound 13a, 2,3,9,10-Tetramethoxy-5,6-dihydrobenz[a]acridine]	100	> 1000	7.1 µM	7.1 µM	
COc1cc2cc3c(nc2cc1OC)CCc1ccc(N)cc1-3 [Compound 20, 2-Amino-9,10-dimethoxy-5,6-dihydrobenz[a]acridine]	100	> 1000	16.3 µM	> 33 µM	
COc1cc2cc3c(nc2cc1OC)CCc1c-3ccc2c1OCO2 [Compound 13e, 5,6-Dihydro-9,10-dimethoxy-3,4-methylenedioxybenz[a]acridine]	1.0	> 1000	3 µM	22.4 µM	potent topoisomerase I poisions
COc1cc2cc3c(ccc4cc(Cl)ccc43)nc2cc1OC [Compound 14j, 3-Chloro-9,10-dimethoxybenz[a]acridine]	1000	> 1000	> 31 µM	> 31 µM	
COc1cc2c[n+](C)c3c4cc5c(cc4ccc3c2cc1OC)OCO5 [Nitidine, reference compound]	0.1	5	0.4 µM	3.9 µM	
Oc1cc2c(cc1O)-c1cc3cc(O)c(O)cc3nc1CC2 [Compound 13g, 2,3,9,10-tetrahydroxy-5,6-dihydrobenz[a]acridine]	1.0	> 1000	20.3 µM	13.6 µM	
COc1cc2cc3c(ccc4ccccc43)nc2cc1OC [Compound 14c, 9,10-Dimethoxybenz[a]acridine]	> 1000	> 1000	10.4 µM	31.1 µM	
COc1cc2c(cc1OC)-c1c(c(C)c3cc(OC)c(OC)cc3[n+]1C)CC2 [Compound 8, 2,3,9,10-Tetramethoxy-7,1 2-dimethyl-5,6-dihydrobenz[c]acridinium methosulfate]	> 1000	> 1000	6.1 µM	12.2 µM	
COc1cc2c(cc1OC)-c1cc3cc4c(cc3nc1CC2)OCO4 [Compound 13b, 2,3,-Dimethoxy-9,10-methylenedioxy-5,6-dihydrobenz[a]acridine]	100	> 1000	9 µM	14.9 µM	
